From patent US11331299B2, “Medicinal use of serrulatane diterpenes” (The University of Sydney, priority 2016, dated 2022)
Where two headings read alike, the source gives them in different places.

Legend:
[1] = target: T1, JMJD2A (h) (Homo sapiens, UniProt O75164); assay: Epigenetic enzyme assay, Demethylases (KDMs); assay type: biochemical; details: read-out: % Inhibition of Control Values
T1 sequence (O75164 1-1064): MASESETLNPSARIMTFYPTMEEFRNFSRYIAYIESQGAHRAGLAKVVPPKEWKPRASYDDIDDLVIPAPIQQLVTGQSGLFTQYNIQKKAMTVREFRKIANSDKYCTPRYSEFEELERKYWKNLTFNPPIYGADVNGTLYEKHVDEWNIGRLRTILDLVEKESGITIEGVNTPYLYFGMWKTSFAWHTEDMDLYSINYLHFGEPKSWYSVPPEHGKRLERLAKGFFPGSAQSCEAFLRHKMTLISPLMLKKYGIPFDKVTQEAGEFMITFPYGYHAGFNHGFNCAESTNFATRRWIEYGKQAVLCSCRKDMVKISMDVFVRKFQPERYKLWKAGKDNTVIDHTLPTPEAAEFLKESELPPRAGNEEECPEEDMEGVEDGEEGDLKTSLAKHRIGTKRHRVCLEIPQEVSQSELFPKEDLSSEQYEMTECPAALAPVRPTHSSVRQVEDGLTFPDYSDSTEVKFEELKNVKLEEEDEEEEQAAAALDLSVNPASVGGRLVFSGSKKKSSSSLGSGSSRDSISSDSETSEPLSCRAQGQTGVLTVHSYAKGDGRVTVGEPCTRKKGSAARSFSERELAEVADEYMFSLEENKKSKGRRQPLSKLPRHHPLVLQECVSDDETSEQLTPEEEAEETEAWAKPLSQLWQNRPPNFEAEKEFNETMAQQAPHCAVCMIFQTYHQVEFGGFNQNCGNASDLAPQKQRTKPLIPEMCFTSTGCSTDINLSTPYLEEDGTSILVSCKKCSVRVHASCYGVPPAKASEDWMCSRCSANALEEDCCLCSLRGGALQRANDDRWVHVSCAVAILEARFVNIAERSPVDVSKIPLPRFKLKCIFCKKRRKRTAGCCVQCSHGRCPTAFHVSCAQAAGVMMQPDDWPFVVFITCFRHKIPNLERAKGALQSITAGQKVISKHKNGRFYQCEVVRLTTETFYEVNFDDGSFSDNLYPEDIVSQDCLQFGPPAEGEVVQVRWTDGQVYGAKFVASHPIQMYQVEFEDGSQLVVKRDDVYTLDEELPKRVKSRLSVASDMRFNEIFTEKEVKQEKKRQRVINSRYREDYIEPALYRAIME

[2] = target: T2, PRMT7 (h) (Homo sapiens, UniProt Q9NVM4); assay: Epigenetic enzyme assay, Methyltransferases (MTs); assay type: biochemical; details: read-out: % Inhibition of Control Values
T2 sequence (Q9NVM4 1-692): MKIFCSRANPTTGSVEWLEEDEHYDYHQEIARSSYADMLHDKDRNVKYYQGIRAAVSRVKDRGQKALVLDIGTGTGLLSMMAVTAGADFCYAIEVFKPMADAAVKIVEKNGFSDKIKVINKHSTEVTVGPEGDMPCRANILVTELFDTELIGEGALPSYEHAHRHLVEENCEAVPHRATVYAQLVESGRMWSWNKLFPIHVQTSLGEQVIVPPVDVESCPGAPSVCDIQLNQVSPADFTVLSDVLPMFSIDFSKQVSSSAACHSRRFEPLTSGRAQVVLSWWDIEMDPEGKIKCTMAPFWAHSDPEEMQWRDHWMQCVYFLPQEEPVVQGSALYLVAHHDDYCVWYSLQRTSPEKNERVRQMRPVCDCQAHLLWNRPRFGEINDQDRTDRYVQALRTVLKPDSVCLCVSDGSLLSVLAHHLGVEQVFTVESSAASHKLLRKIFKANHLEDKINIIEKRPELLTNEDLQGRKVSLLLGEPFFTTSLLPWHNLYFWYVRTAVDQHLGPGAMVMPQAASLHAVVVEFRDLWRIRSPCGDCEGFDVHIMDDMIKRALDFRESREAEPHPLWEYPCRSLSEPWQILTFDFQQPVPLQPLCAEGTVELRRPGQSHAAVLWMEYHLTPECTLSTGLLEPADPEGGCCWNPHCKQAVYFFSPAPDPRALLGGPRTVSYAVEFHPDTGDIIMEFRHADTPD

[3] = target: Aurora B (h) (substrate histone H3 full length) (Homo sapiens, UniProt Q96GD4); assay: Epigenetic enzyme assay, Kinases; assay type: biochemical; details: read-out: % Inhibition of Control Values
[4] = tested on: MDA-MB-415; assay: OncoPanel cell proliferation assay (10-day); assay type: cell-based, human; details: for EC50 / GI50 / IC50: Homo sapiens, MDA-MB-415, Breast; for EC50: read-out: Cell Count EC50; for GI50: read-out: Cell Count GI50; for IC50: read-out: Cell Count IC50
[5] = tested on: J-RT3-T3-5 leukemia; assay: OncoPanel cell proliferation assay (10-day); assay type: cell-based, human; details: for GI50 / EC50 / IC50: Homo sapiens; for EC50: read-out: Cell Count EC50; for IC50: read-out: Cell Count IC50
[6] = tested on: KG-1 leukemia cell line; assay: OncoPanel cell proliferation assay (10-day); assay type: cell-based; details: Homo sapiens; for EC50: read-out: Cell Count EC50; for IC50: read-out: Cell Count IC50
[7] = J-RT3-T3-5, Leukemia, read-out: Cell Count GI50
[8] = KG-1, Leukemia, read-out: Cell Count GI50

Sequence of Aurora B (h) (substrate histone H3 full length) (Q96GD4 whole entry): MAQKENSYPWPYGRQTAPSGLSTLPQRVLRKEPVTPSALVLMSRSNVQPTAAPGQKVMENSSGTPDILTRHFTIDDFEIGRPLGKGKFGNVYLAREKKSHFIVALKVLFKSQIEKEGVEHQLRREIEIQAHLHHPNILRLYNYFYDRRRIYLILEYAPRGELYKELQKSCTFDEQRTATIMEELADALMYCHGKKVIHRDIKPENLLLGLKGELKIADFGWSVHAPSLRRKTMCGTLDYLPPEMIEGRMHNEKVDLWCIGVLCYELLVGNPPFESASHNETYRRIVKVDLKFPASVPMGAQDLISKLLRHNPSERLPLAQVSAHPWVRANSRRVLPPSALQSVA

| SMILES | inhibition at 10 µM [1] | inhibition at 10 µM [2] | inhibition at 10 µM [3] | EC50 [4] | GI50 [4] | IC50 [4] | GI50 ([5]; J-RT3-T3-5, read-out: GI50) | EC50 ([5]; J-RT3-T3-5, Leukemia) | GI50 [5, 7] | IC50 ([5]; J-RT3-T3-5, Leukemia) | EC50 ([6]; KG-1, Leukemia) | GI50 [6, 8] | IC50 ([6]; KG-1, Leukemia) | also measured |
| --- | --- | --- | --- | --- | --- | --- | --- | --- | --- | --- | --- | --- | --- | --- |
| CC(C)=CCC[C@H](CO)[C@@H]1CC[C@@H](C)c2c1cc(C)c(O)c2O [Compound 1, 7,8,18-trihydroxyserrulat-14-ene] | 29% | -2% | 6% | 1.02 µM | 1 µM | 1.02 µM | 0.0101 µM | 0.01 µM | 0.01 µM | 0.01 µM | 0.12 µM | 0.11 µM | 0.12 µM | Relative cell count (%) Mean ([4]; 3.00E+00 microM): 1.3%; Relative cell count (%) Mean ([4]; 3.00E+01 microM): 0.2%; Relative cell count (%) Mean ([4]; 3.01E−01 microM): 100.2%; Relative cell count (%) Mean ([4]; 3.01E−02 microM): 93.4%; Relative cell count (%) Mean ([4]; 3.02E−03 microM): 100.0%; Relative cell count (%) Mean ([4]; 9.49E+00 microM): 0.3%; Relative cell count (%) Mean ([4]; 9.51E−01 microM): 62.3%; Relative cell count (%) Mean ([4]; 9.52E−02 microM): 98.1%; Relative cell count (%) Mean ([4]; 9.53E−03 microM): 98.0%; Relative cell count (%) Mean ([4]; 9.55E−04 microM): 90.2%; GI50 ([6]; read-out: GI50): 0.11 µM |
| CC(C)=CCC[C@@H]1C(O)Oc2c(C)cc(O)c3c2[C@H]1CC[C@H]3C (some centres unmarked) [Compound 2, 5,18-epoxyserrulat-14-en-8,18-diol] | -10% | 0% | 4% | 11.5 µM | 10.8 µM | 11.5 µM |  | 2.08 µM | 2.06 µM | 2.08 µM | 11.3 µM | 11.9 µM | 12 µM |  |
| CC(C)=CCC[C@@H]1COc2c(C)cc(O)c3c2[C@H]1CC[C@H]3C [Compound 3, 5,18-epoxy-8-hydroxyserrulat-14-ene] | 12% | -36% | -1% |  |  |  |  |  |  |  |  |  |  |  |
| CC(C)=CCC[C@H](C)[C@@H]1CC[C@@H](C)c2c1cc(C)c(O)c2O [Compound 4, 7,8-dihydroxyserrulat-14-ene] |  |  |  | 28.5 µM | 27.4 µM | 28.5 µM | 2.71 µM | 2.71 µM | 2.71 µM | 2.71 µM | 13.3 µM | 13.1 µM | 13.3 µM | times less activity than Compound 1 ([5]; ratio of GI50 values): approximately 270 times |
